Results taken from ChEMBL document CHEMBL1201862, “PubChem BioAssay data set” (2004).
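1) Cells in 96-well plates. 2) Compound, 48 h, 5 concentrations. 3) Linear interpolation between surrounding doses. 4) Unreached endpoint = highest concentration. GI50 = concentration required for 50% inhibition of growth.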 The source made the active and inactive calls. Cut-off read from the data, not from the text of the source: active = GI50 up to about 1.1 µM and inactive = higher.

Key:
Experiment in all cases: NCI-60 cell line screen, 48 h
HL-60 = tested on: HL-60
TK-10 = tested on: TK-10
PC-3 = tested on: PC-3
786-0 = tested on: 786-0
NCI-H522 = tested on: NCI-H522
A498 = tested on: A498
NCI/ADR-RES = tested on: NCI/ADR-RES
A549 = tested on: A549
T47D = tested on: T47D
HOP-92 = tested on: HOP-92
IGROV-1 = tested on: IGROV-1
U-251 = tested on: U-251
HOP-62 = tested on: HOP-62
SN12C = tested on: SN12C
KM12 = tested on: KM12
SF-295 = tested on: SF-295
NCI-H460 = tested on: NCI-H460
UACC-62 = tested on: UACC-62
NCI-H226 = tested on: NCI-H226
SK-MEL-5 = tested on: SK-MEL-5
SNB-19 = tested on: SNB-19
NCI-H23 = tested on: NCI-H23
UO-31 = tested on: UO-31
HCT-116 = tested on: HCT-116
MDA-N = tested on: MDA-N
Malme-3M = tested on: Malme-3M
LOX IMVI = tested on: LOX IMVI
UACC-257 = tested on: UACC-257
RPMI-8226 = tested on: RPMI-8226
OVCAR-3 = tested on: OVCAR-3
SF-268 = tested on: SF-268
OVCAR-8 = tested on: OVCAR-8
SK-MEL-28 = tested on: SK-MEL-28
SF-539 = tested on: SF-539
K562 = tested on: K562
ACHN = tested on: ACHN
MOLT-4 = tested on: MOLT-4
Hs-578T = tested on: Hs-578T
MDA-MB-435 = tested on: MDA-MB-435
HT-29 = tested on: HT-29
CCRF-CEM = tested on: CCRF-CEM
DU-145 = tested on: DU-145
OVCAR-4 = tested on: OVCAR-4
SR = tested on: SR
SNB-75 = tested on: SNB-75
CAKI-1 = tested on: CAKI-1
M14 = tested on: M14
EKVX = tested on: EKVX
MDA-MB-231 = tested on: MDA-MB-231
SW-620 = tested on: SW-620
RXF 393 = tested on: RXF 393
OVCAR-5 = tested on: OVCAR-5
SK-MEL-2 = tested on: SK-MEL-2
MCF7 = tested on: MCF7
HCC 2998 = tested on: HCC 2998
SK-OV-3 = tested on: SK-OV-3
HCT-15 = tested on: HCT-15
COLO 205 = tested on: COLO 205

For `COC(=O)[C@@H]1CN(C(=O)c2ccccc2)C(=O)N1`, the GI50 (HL-60) was > 100 µM (inactive), the GI50 (TK-10) was > 100 µM (inactive) and the GI50 (PC-3) was > 100 µM (inactive). The GI50 (786-0) was > 100 µM (inactive), the GI50 (NCI-H522) was > 100 µM (inactive) and the GI50 (A498) was > 100 µM (inactive). For the same molecule, the GI50 (NCI/ADR-RES) was > 100 µM (inactive), the GI50 (A549) was > 100 µM (inactive) and the GI50 (T47D) was > 100 µM (inactive). For the same molecule, the GI50 (HOP-92) was > 100 µM (inactive), the GI50 (IGROV-1) was > 100 µM (inactive) and the GI50 (U-251) was > 100 µM (inactive). The GI50 (HOP-62) was > 100 µM (inactive), the GI50 (SN12C) was > 100 µM (inactive) and the GI50 (KM12) was > 100 µM (inactive). The GI50 (SF-295) was > 100 µM (inactive), the GI50 (NCI-H460) was > 100 µM (inactive) and the GI50 (UACC-62) was > 100 µM (inactive). For the same molecule, the GI50 (NCI-H226) was > 100 µM (inactive), the GI50 (SK-MEL-5) was > 100 µM (inactive) and the GI50 (SNB-19) was > 100 µM (inactive). The GI50 (NCI-H23) was > 100 µM (inactive), the GI50 (UO-31) was 69.7 µM (inactive) and the GI50 (HCT-116) was > 100 µM (inactive). For the same molecule, the GI50 (MDA-N) was > 100 µM (inactive), the GI50 (Malme-3M) was > 100 µM (inactive) and the GI50 (LOX IMVI) was > 100 µM (inactive). For the same molecule, the GI50 (UACC-257) was > 100 µM (inactive), the GI50 (RPMI-8226) was > 100 µM (inactive) and the GI50 (OVCAR-3) was > 100 µM (inactive). For the same molecule, the GI50 (SF-268) was > 100 µM (inactive), the GI50 (OVCAR-8) was > 100 µM (inactive) and the GI50 (SK-MEL-28) was > 100 µM (inactive). The GI50 (SF-539) was > 100 µM (inactive), the GI50 (K562) was > 100 µM (inactive) and the GI50 (ACHN) was > 100 µM (inactive). For the same molecule, the GI50 (MOLT-4) was > 100 µM (inactive), the GI50 (Hs-578T) was > 100 µM (inactive) and the GI50 (MDA-MB-435) was > 100 µM (inactive). The GI50 (HT-29) was > 100 µM (inactive), the GI50 (CCRF-CEM) was > 100 µM (inactive) and the GI50 (DU-145) was > 100 µM (inactive). For the same molecule, the GI50 (OVCAR-4) was > 100 µM (inactive), the GI50 (SR) was > 100 µM (inactive) and the GI50 (SNB-75) was > 100 µM (inactive). The GI50 (CAKI-1) was > 10 µM (inactive), the GI50 (M14) was > 100 µM (inactive) and the GI50 (EKVX) was > 100 µM (inactive). The GI50 (MDA-MB-231) was > 100 µM (inactive), the GI50 (SW-620) was > 100 µM (inactive) and the GI50 (RXF 393) was > 100 µM (inactive). For the same molecule, the GI50 (OVCAR-5) was > 100 µM (inactive).
In the case of `c1ccc(CSCCC(SCc2ccccc2)SCc2ccccc2)cc1`, the GI50 (HL-60) is reported as > 10 µM (inactive), the GI50 (TK-10) is reported as > 10 µM (inactive) and the GI50 (PC-3) is reported as > 10 µM (inactive). The GI50 (786-0) was > 10 µM (inactive), the GI50 (NCI-H522) was > 10 µM (inactive) and the GI50 (A498) was > 10 µM (inactive). The GI50 (NCI/ADR-RES) was > 10 µM (inactive), the GI50 (A549) was > 10 µM (inactive) and the GI50 (T47D) was > 10 µM (inactive). The GI50 (HOP-92) was 9.66 µM (inactive), the GI50 (IGROV-1) was > 10 µM (inactive) and the GI50 (U-251) was > 10 µM (inactive). The GI50 (HOP-62) was > 10 µM (inactive), the GI50 (SK-MEL-2) was > 10 µM (inactive) and the GI50 (SN12C) was > 10 µM (inactive). The GI50 (KM12) was > 10 µM (inactive), the GI50 (SF-295) was > 10 µM (inactive) and the GI50 (NCI-H460) was > 10 µM (inactive). For the same molecule, the GI50 (UACC-62) was > 10 µM (inactive), the GI50 (NCI-H226) was > 10 µM (inactive) and the GI50 (SK-MEL-5) was > 10 µM (inactive). The GI50 (SNB-19) was > 10 µM (inactive), the GI50 (NCI-H23) was > 10 µM (inactive) and the GI50 (UO-31) was > 10 µM (inactive). For the same molecule, the GI50 (HCT-116) was > 10 µM (inactive), the GI50 (MDA-N) was > 10 µM (inactive) and the GI50 (Malme-3M) was > 10 µM (inactive). The GI50 (LOX IMVI) was > 10 µM (inactive), the GI50 (UACC-257) was > 10 µM (inactive) and the GI50 (RPMI-8226) was > 10 µM (inactive). The GI50 (OVCAR-3) was > 10 µM (inactive), the GI50 (SF-268) was > 10 µM (inactive) and the GI50 (OVCAR-8) was > 10 µM (inactive). For the same molecule, the GI50 (SK-MEL-28) was > 10 µM (inactive), the GI50 (SF-539) was > 10 µM (inactive) and the GI50 (K562) was > 10 µM (inactive). The GI50 (ACHN) was > 10 µM (inactive), the GI50 (MOLT-4) was > 10 µM (inactive) and the GI50 (MCF7) was > 10 µM (inactive). The GI50 (Hs-578T) was > 10 µM (inactive), the GI50 (HT-29) was > 10 µM (inactive) and the GI50 (HCC 2998) was > 10 µM (inactive). For the same molecule, the GI50 (CCRF-CEM) was > 10 µM (inactive), the GI50 (DU-145) was > 10 µM (inactive) and the GI50 (OVCAR-4) was > 10 µM (inactive). For the same molecule, the GI50 (SR) was > 10 µM (inactive), the GI50 (SNB-75) was > 10 µM (inactive) and the GI50 (CAKI-1) was > 10 µM (inactive). The GI50 (SK-OV-3) was > 10 µM (inactive), the GI50 (HCT-15) was greater than 10 µM and the GI50 (COLO 205) was > 10 µM (inactive). For the same molecule, the GI50 (M14) was > 10 µM (inactive), the GI50 (EKVX) was > 10 µM (inactive) and the GI50 (MDA-MB-231) was > 10 µM (inactive). For the same molecule, the GI50 (SW-620) was > 10 µM (inactive) and the GI50 (RXF 393) was > 10 µM (inactive).
`COC(=O)C(Nc1ccc(OC)cc1)c1ccccc1` (centres undefined) was tested, and the GI50 (TK-10) was > 100 µM (inactive), the GI50 (PC-3) was > 100 µM (inactive) and the GI50 (786-0) was > 100 µM (inactive). The GI50 (NCI-H522) was > 100 µM (inactive), the GI50 (NCI/ADR-RES) was 74.1 µM (inactive) and the GI50 (A549) was > 100 µM (inactive). The GI50 (T47D) was > 100 µM (inactive), the GI50 (IGROV-1) was > 100 µM (inactive) and the GI50 (HOP-62) was > 100 µM (inactive). The GI50 (SK-MEL-2) was > 100 µM (inactive), the GI50 (SN12C) was > 100 µM (inactive) and the GI50 (KM12) was > 100 µM (inactive). The GI50 (SF-295) was 89.3 µM (inactive), the GI50 (NCI-H460) was > 100 µM (inactive) and the GI50 (UACC-62) was > 100 µM (inactive). The GI50 (SK-MEL-5) was > 100 µM (inactive), the GI50 (SNB-19) was > 100 µM (inactive) and the GI50 (NCI-H23) was > 100 µM (inactive). The GI50 (UO-31) was > 100 µM (inactive), the GI50 (HCT-116) was > 100 µM (inactive) and the GI50 (MDA-N) was > 100 µM (inactive). The GI50 (LOX IMVI) was > 100 µM (inactive), the GI50 (UACC-257) was > 100 µM (inactive) and the GI50 (RPMI-8226) was 83.9 µM (inactive). The GI50 (OVCAR-3) was > 100 µM (inactive), the GI50 (SF-268) was > 100 µM (inactive) and the GI50 (OVCAR-8) was > 100 µM (inactive). The GI50 (SK-MEL-28) was > 100 µM (inactive), the GI50 (SF-539) was > 100 µM (inactive) and the GI50 (K562) was > 100 µM (inactive). For the same molecule, the GI50 (ACHN) was > 100 µM (inactive), the GI50 (MOLT-4) was > 100 µM (inactive) and the GI50 (MCF7) was > 100 µM (inactive). The GI50 (Hs-578T) was > 100 µM (inactive), the GI50 (MDA-MB-435) was > 100 µM (inactive) and the GI50 (HT-29) was > 100 µM (inactive). For the same molecule, the GI50 (CCRF-CEM) was > 100 µM (inactive), the GI50 (DU-145) was > 100 µM (inactive) and the GI50 (SR) was > 100 µM (inactive). For the same molecule, the GI50 (CAKI-1) was > 100 µM (inactive), the GI50 (HCT-15) was greater than 100 µM and the GI50 (COLO 205) was > 100 µM (inactive). For the same molecule, the GI50 (M14) was > 100 µM (inactive), the GI50 (EKVX) was > 100 µM (inactive) and the GI50 (SW-620) was > 100 µM (inactive). The GI50 (OVCAR-5) was > 100 µM (inactive).
